Here are results for 10 compounds from patent publication US9428564B2, “Muscle function enhancing peptide” (Universitatsklinikum Heidelberg, priority 2009, dated 2016).

In data set [1] the test system is permeabilized cardiomyocytes. Kind of data set: Ca2+-spark frequency in β-escin permeabilized cardiomyocytes. It is filed as cell-based, rabbit. How it is done:
Adult ventricular rabbit cardiomyocytes were isolated from four different animals as previously described (Loughrey C. M. et al., 2004, J. Physiol. 556:919-934) and permeabilized using β-escin (0.1 mg/ml). The permeabilized cells were incubated for 1 minute with rhodamine-labeled human S100A1 protein (0.1 μM) or FITC-labeled S100A1 C-terminal 20-mer peptide (0.1 μM) fused to a hydrophilic linker (amino acids 75 to 94 of human S100A1 fused to D-K-D-D-P-P (SEQ ID NO: 354)). Cells were monitored using a Bio-Rad 2000 laser scanning confocal microscope (LSCM). A striated staining pattern can be observed that resembles the ryanodine staining pattern (FIG. 4).
Isolated cardiomyocytes were perfused with a mock intracellular solution and permeabilized using β-escin (0.1 mg/ml). Fluo-3 free acid (10 μM) present in the perfusing solution was excited at 488 nm (Kr-laser) and measured at >515 nm applying epifluorescence optics of an inverted microscope with a ×60-1.2 NA water-immersion objective lens. Fluorescence was acquired in line scan mode at 2 ms line^−1; pixel dimension was 0.3 μm (512 pixels scan^−1; zoom=1.4). The scanning laser line orientated parallel with the long axis and placed approximately equidistant between the outer edge of the cell and the nucleus/nuclei, to ensure the nuclear area was not included in the scan line. To enable this trace to be converted to free calcium concentration ([Ca^2+]) a series of calibration solutions were used at the end of each Ca^2+-spark measurement period incorporating 10 mM EGTA. In all experiments concerning Ca^2+-sparks, the [Ca^2+] in the test solution was 145-160 nM. Ca^2+-sparks recorded in Fluo-3-containing solutions were quantified using an automated detection and measurement algorithm. All Ca^2+-spark measurements were made within 7-8 min of cell permeabilization. This time was standardized to minimize loss of soluble proteins. S100A1 protein or S100A1-ct peptide was applied in mock solution using a gravity-fed perfusion system. […]

Data set [2] relates to isolated rat ventricular cardiomyocytes. Format: cell-based. Conditions: for inotropic effect (calcium transients): basal conditions, intact field-stimulated cardiomyocytes; for inotropic effect (calcium transients) under βAR stimulation: β-AR stimulated, 10^−9 M Isoproterenol; for effect on calcium transient amplitudes: field-stimulated (1 Hz) isolated rat ventricular cardiomyocytes, FIG. 25.

In data set [3] the test system is intact rat ventricular cardiomyocytes. It is filed as cell-based. Conditions: not told. The text has this:
Equivalent bioactivity of native human S100A1 protein and the 20-mer C-terminal peptide was shown by the inventors in chemically permeabilized cardiac and skeletal muscle cell preparations enabling intracellular access and regulation of RyR2 and RyR1 function. FIG. 4 depicts a similar intracellular binding pattern for rhodamine-labeled recombinant human S100A1 protein (10415 Mw) (FIG. 4A/B) and the 20-mer FITC-labeled synthetic S100A1 C-terminal peptide (2258 Mw) (FIG. 4C/D).
S100A1ct6/11 refers to the peptide D-K-D-D-P-P-Y-V-V-L-V-A-A-L-T-V-A (SEQ ID NO: 372), wherein the sequence D-K-D-D-P-P (SEQ ID NO: 354) is a hydrophilic motif and the sequence Y-V-V-L-V-A-A-L-T-V-A (SEQ ID NO: 390) are amino acids 75 to 85 of the human S100A1 protein.
FITC-labeled S100A1ct6/11 was incubated with intact rat ventricular cardiomyocytes for 15 minutes before the cells were monitored using confocal laser scanning microscopy. Endogenous S100A1 protein was stained using a conventional immunofluorescence protocol.

Like-named read-outs stand apart in the source and are kept apart here. Where a SMILES comes first, the peptide text is derived from it. Where no end group is shown, it is not given here.

In the case of “S100A1 C-terminal 20-mer peptide fused to a hydrophilic linker: amino acids 75 to 94 of human S100A1 fused to D-K-D-D-P-P (SEQ ID NO: 354) (YVVLVAALTVACNNFFWENS; also: fused to hydrophilic linker D-K-D-D-P-P, end not given here; UniProt P23297 75-94, looked up, fragment) [reference compound]”, in data set [1], the “diastolic calcium spark frequency” value is “decrease calcium spark frequency”. Consider “DKDDPP-FMAFVAMVTTA (DKDDPPFMAFVAMVTTA; amino acids 75 to 85 of S100B fused to a hydrophilic motif) [amino acids 75-85 of S100B fused to a hydrophilic motif, reference compound]”, for which, in data set [2], the “inotropic effect (calcium transients)” value is “fail to reproduce S100A1ct6/11 inotropic actions” and the “inotropic effect (calcium transients) under βAR stimulation” value was “neither S100A4ct nor S100Bct mimic S100A1ct6/11 inotropic effects”. Consider `CC(C)C[C@H](NC(=O)[C@H](C)NC(=O)[C@H](C)NC(=O)[C@@H](NC(=O)[C@H](CC(C)C)NC(=O)[C@@H](NC(=O)[C@@H](NC(=O)[C@@H](N)Cc1ccc(O)cc1)C(C)C)C(C)C)C(C)C)C(=O)N[C@H](C(=O)N[C@H](C(=O)N[C@@H](C)C(=O)N[C@@H](CS)C(=O)N[C@@H](CC(N)=O)C(=O)N[C@@H](CC(N)=O)C(=O)N[C@@H](Cc1ccccc1)C(=O)N[C@@H](Cc1ccccc1)C(=O)N[C@@H](Cc1c[nH]c2ccccc12)C(=O)N[C@@H](CCC(=O)O)C(=O)N[C@@H](CC(N)=O)C(=O)N[C@@H](CO)C(=O)O)C(C)C)[C@@H](C)O` [20-mer S100A1 C-terminal peptide, YVVLVAALTVACNNFFWENS, reference compound] (H-YVVLVAALTVACNNFFWENS-OH; N-terminus and C-terminus assumed), for which, in data set [3], the “ability to permeate the cell membrane of intact cardiomyocytes” value is “cell-impermeable”. Consider “N-79-85-C: amino acids 79 to 85 of human S100A1 protein set forth in SEQ ID NO: 1 (VAALTVA; listed as Homo sapiens)”, for which the “effect on calcium transient amplitudes” value in data set [2] was “abolishes the inotropic effect”.

On to “N-77-85-C: amino acids 77 to 85 of human S100A1 protein set forth in SEQ ID NO: 1 (VLVAALTVA; listed as Homo sapiens)”, for which, in data set [2], the “effect on calcium transient amplitudes” value was “abolishes the inotropic effect”. Take “D-K-D-D-P-P (DKDDPP; hydrophilic motif) [linker, reference compound]”: the “effect on calcium transient amplitudes” value in data set [2] is “do not exhibit the inotropic effect”.

Regarding “D-K-D-D-P-P-V-V-L-V-A-A-L-T-V-A (DKDDPPVVLVAALTVA; amino acids 76 to 85 of human S100A1 fused to a hydrophilic motif) [N-76-85-C, amino acids 76 to 85 of human S100A1 fused to a hydrophilic linker (D-K-D-D-P-P)]”, the “effect on calcium transient amplitudes” value in data set [2] (listed as peptide consisting of amino acids 76 to 85 of human S100A1 fused to a hydrophili) is on record as “exerts the same inotropic function as the S100A1ct6/11 peptide”. “DKDDPP-YCVFLSCIAMM (DKDDPPYCVFLSCIAMM; amino acids 75 to 85 of S100A4 fused to a hydrophilic motif) [amino acids 75-85 of S100A4 fused to a hydrophilic motif, reference compound]”: in data set [2], the “inotropic effect (calcium transients)” value is listed as “fail to reproduce S100A1ct6/11 inotropic actions” and the “inotropic effect (calcium transients) under βAR stimulation” value is recorded as “neither S100A4ct nor S100Bct mimic S100A1ct6/11 inotropic effects”. As to “N-78-85-C: amino acids 78 to 85 of human S100A1 protein set forth in SEQ ID NO: 1 (LVAALTVA; listed as Homo sapiens)”, the “effect on calcium transient amplitudes” value in data set [2] is “abolishes the inotropic effect”. For orientation: EC50 means the midpoint of the concentration-response curve. Low readings indicate an effect from little substance, high ones a need for much substance. In data set [2], `CC(C)C[C@H](NC(=O)[C@H](C)NC(=O)[C@H](C)NC(=O)[C@@H](NC(=O)[C@H](CC(C)C)NC(=O)[C@@H](NC(=O)[C@@H](NC(=O)[C@H](Cc1ccc(O)cc1)NC(=O)[C@@H]1CCCN1C(=O)[C@@H]1CCCN1C(=O)[C@H](CC(=O)O)NC(=O)[C@H](CC(=O)O)NC(=O)[C@H](CCCCN)NC(=O)[C@@H](N)CC(=O)O)C(C)C)C(C)C)C(C)C)C(=O)N[C@H](C(=O)N[C@H](C(=O)N[C@@H](C)C(=O)O)C(C)C)[C@@H](C)O` [S100A1ct6/11, D-K-D-D-P-P-Y-V-V-L-V-A-A-L-T-V-A] (H-DKDDPPYVVLVAALTVA-OH; N-terminus and C-terminus assumed) yielded an EC50 of 87 ± 6 nM. For the same compound, the “ability to permeate the cell membrane of intact cardiomyocytes” value in data set [3] was “cell permeable”.
